According to US12408604B2, “Method for producing avenanthramide-rich oats using active elicitors” (KOREA RESEARCH INSTITUTE OF BIOSCIENCE AND BIOTECHNOLOGY, priority 2020, dated 2025):

How the values were obtained:
Assay type in all cases: in vivo
Choyang oats = assay: Production (content) of avenanthramides in germinated oats treated with elicitors, HPLC analysis; settings: for production of avenanthramides compared to control group: Example 3, FIG. 2, SA vs control DW, ABA vs control EtOH; for production of avenanthramides over tested concentrations: Example 5, MJ 10-100 μM, ABA 10-300 μM; for synthesis amount / content of avenanthramides in oats compared to other elicitors: Examples 3 and 4, FIG. 2
Protocol: In an embodiment of the present invention, a domestic cultivated breed, Choyang oats, was used. The Choyang oat seeds were immersed for 12 hours, and then sterilized at 50° C. for 10 minutes and used. Two sheets of sterile filter paper were laid on a plant culture dish, poured with 7 ml of water, and then the sterilized Choyang oat seeds were placed and cold-treated at 4° C. for two days. The Choyang oat seeds were cultured under culture conditions of 25° C. and a photoperiod of 16L:8D.
Analysis of avenanthramides of germinated oats recovered in Example of the present invention was performed as follows. First, the obtained germinated oats were powdered using liquid nitrogen. 0.1 g of the oat powder was extracted with 1 ml of 80% methanol, and then sonicated at 50° C. for 20 minutes, extracted, and then centrifuged to obtain an oat extract from an upper layer. The extracted filtrate was dried by injecting air, and the dried product was dissolved in 200 μl of 80% methanol, and filtered using 0.2 μm PTFE (hydrophilic, ADVANTEC, Japan), and the sample was used for high-performance liquid chromatography (HPLC) analysis. A pump system used 4 solvent pumps (quaternary pumps), and a column used ZORBAX SB-18 ([…], 4.6×150 mm) from Agilent, and a mobile phase was analyzed by using gradient elution using water (A, 5% acetonitrile, 0.1% formic acid) and acetonitrile. (B, 0.1% formic acid).
After treatment with the elicitors for 3 days, the avenanthramides were harvested and HPLC was performed. The elicitors used at this time were methyl jasmonate (MJ), abscisic acid (ABA), salicylic acid (SA), ethephon (ET), methyl viologen (MV), and chitosan (CHI). DW was used as a solvent for MV, CHI, and SA, and EtOH was used as a solvent for ET, MJ, and ABA. A case of treating only DW and EtOH (0.1%), which are solvents of each elicitor, was set as a control.
Like in Example 3, 10 μM, 20 μM, 25 μM, 50 μM, 75 μM, and 100 μM of MJ and 10 μM, 20 μM, 25 μM, 50 μM, 75 μM, 100 μM, and 300 μM of ABA were treated by concentration on day 2 after germination, recovered on day 5 after germination, then frozen using liquid nitrogen, and stored at −80° C. until extraction and used. As a control, EtOH, a solvent of MJ and ABA, was treated at a concentration of 0.1%. The experimental results were shown in Tables 2 and 3 and FIGS. 4 and 5 below. […]

AsPAL = assay: qRT-PCR transcriptional expression of avenanthramide biosynthetic gene AsPAL in elicitor-treated oats; settings: single elicitor treatment, Example 4, FIG. 3
Protocol: (§1) Specifically, total RNA was isolated from the recovered oats, and cDNA was synthesized from the isolated total RNA using a First-Strand CDNA Synthesis Kit (Fermantas, Canada). By using the synthesized cDNA, qRT-PCR was performed on avenanthramide biosynthesis-related genes.
(§2) For the qRT-PCR amplification, a Quick Guide from BIOFACT was used, and a process of initial denaturation at 95° C. for 15 minutes and denaturation at 95° C. for 20 seconds, binding and elongation at […] for 40 seconds was repeated 40 times, and melting curve analysis was performed at 65° C. to 95° C. by 1° C. for 0.5 second.
(§3) Primers for avenanthramides biosynthesis genes and actin qRT-PCR used for the experiment were as follows.

AsHHT4 = assay: qRT-PCR transcriptional expression of avenanthramide biosynthetic gene AsHHT4 in elicitor-treated oats; settings: single elicitor treatment, Example 4, FIG. 3
Protocol: as §1, §2, §3

[1] = Example 3, elicitor treated on day 2 after germination induction for 3 days, concentration not given
[2] = Example 3, total avenanthramides, control DW for MV, CHI, SA, control EtOH for ET, MJ, ABA
[3] = 10 μM elicitor, control EtOH 0.1%
[4] = 10 μM elicitor, treated day 2, recovered day 5 after germination
[5] = 20 μM elicitor, control EtOH 0.1%
[6] = 20 μM elicitor, treated day 2, recovered day 5 after germination
[7] = 25 μM elicitor, control EtOH 0.1%
[8] = 25 μM elicitor, treated day 2, recovered day 5 after germination
[9] = 50 μM elicitor, control EtOH 0.1%
[10] = 50 μM elicitor, treated day 2, recovered day 5 after germination
[11] = 75 μM elicitor, control EtOH 0.1%
[12] = 75 μM elicitor, treated day 2, recovered day 5 after germination
[13] = 100 μM elicitor, control EtOH 0.1%
[14] = 100 μM elicitor, treated day 2, recovered day 5 after germination
[15] = 300 μM elicitor, treated day 2, recovered day 5 after germination

O=C(O)c1ccccc1O [SA, salicylic acid]
production of avenanthramides compared to control group (Choyang oats; CHI, MJ): slightly decreased | avnA (Choyang oats; [1]): 90.53 mg/kg, FW | avnB (Choyang oats; [1]): 149.58 mg/kg, FW | avnC (Choyang oats; [1]): 64.34 mg/kg, FW | total (Choyang oats; [1]): 304.45 mg/kg, FW | Compared to control (Choyang oats; [2]): −9.38%

O=P(O)(O)CCCl [ET, ethephon]
avnA (Choyang oats; [1]): 86 mg/kg, FW | avnB (Choyang oats; [1]): 145.36 mg/kg, FW | avnC (Choyang oats; [1]): 74.96 mg/kg, FW | total (Choyang oats; [1]): 306.32 mg/kg, FW | Compared to control (Choyang oats; [2]): 31.71%

CC1=CC(=O)CC(C)(C)[C@@]1(O)/C=C/C(C)=C\C(=O)O [ABA, abscisic acid]
expression of AsPAL gene (AsPAL): increased | expression of AsHHT4 gene (AsHHT4): increased | Compared to control (Choyang oats; [3]): 176.85% | avnA (Choyang oats; [4]): 177.8 mg/kg, FW | avnB (Choyang oats; [4]): 299.1 mg/kg, FW | avnC (Choyang oats; [4]): 197.11 mg/kg, FW | total (Choyang oats; [4]): 674.01 mg/kg, FW | Compared to control (Choyang oats; [5]): 185.33% | avnA (Choyang oats; [6]): 185.34 mg/kg, FW | avnB (Choyang oats; [6]): 319.67 mg/kg, FW | avnC (Choyang oats; [6]): 189.65 mg/kg, FW | total (Choyang oats; [6]): 694.66 mg/kg, FW | Compared to control (Choyang oats; [7]): 225.40% | avnA (Choyang oats; [8]): 202.56 mg/kg, FW | avnB (Choyang oats; [8]): 363.51 mg/kg, FW | avnC (Choyang oats; [8]): 226.14 mg/kg, FW | total (Choyang oats; [8]): 792.21 mg/kg, FW | Compared to control (Choyang oats; [9]): 240.45% | avnA (Choyang oats; [10]): 206.95 mg/kg, FW | avnB (Choyang oats; [10]): 385.73 mg/kg, FW | avnC (Choyang oats; [10]): 236.19 mg/kg, FW | total (Choyang oats; [10]): 828.87 mg/kg, FW | Compared to control (Choyang oats; [11]): 217.58% | avnA (Choyang oats; [12]): 211.62 mg/kg, FW | avnB (Choyang oats; [12]): 328.63 mg/kg, FW | avnC (Choyang oats; [12]): 232.94 mg/kg, FW | total (Choyang oats; [12]): 773.19 mg/kg, FW | Compared to control (Choyang oats; [13]): 184.80% | avnA (Choyang oats; [14]): 186.05 mg/kg, FW | avnB (Choyang oats; [14]): 309.78 mg/kg, FW | avnC (Choyang oats; [14]): 197.55 mg/kg, FW | total (Choyang oats; [14]): 693.38 mg/kg, FW | Compared to control (Choyang oats; 300 μM elicitor, control EtOH 0.1%): 189.98% | avnA (Choyang oats; [15]): 193.65 mg/kg, FW | avnB (Choyang oats; [15]): 328.02 mg/kg, FW | avnC (Choyang oats; [15]): 184.32 mg/kg, FW | total (Choyang oats; [15]): 705.99 mg/kg, FW | largest amount of avenanthramides produced (Choyang oats; ABA at a 50 μM concentration (FIG. 5)): up to 828.8 mg/kg | production of avenanthramides in oats (Choyang oats; ABA at concentrations of 20 to 300 μM): significantly increased | production of avenanthramide C (Choyang oats; Example 3): specifically increased the most | production of avenanthramides compared to control group (Choyang oats; CHI, MJ): significantly increased | avnA (Choyang oats; [1]): 193.78 mg/kg, FW | avnB (Choyang oats; [1]): 207.37 mg/kg, FW | avnC (Choyang oats; [1]): 241.72 mg/kg, FW | total (Choyang oats; [1]): 642.87 mg/kg, FW | Compared to control (Choyang oats; [2]): 176.42% | production of avenanthramides over tested concentrations (Choyang oats): increased at all concentrations | synthesis amount / content of avenanthramides in oats compared to other elicitors (Choyang oats): most increased | synthesis amount / content of avenanthramides in oats compared to other elicitors (Choyang oats; listed as abscisic acid): increased most

C[n+]1ccc(-c2cc[n+](C)cc2)cc1 [MV, methyl viologen]
avnA (Choyang oats; [1]): 95.37 mg/kg, FW | avnB (Choyang oats; [1]): 169.01 mg/kg, FW | avnC (Choyang oats; [1]): 84.14 mg/kg, FW | total (Choyang oats; [1]): 348.52 mg/kg, FW | Compared to control (Choyang oats; [2]): 3.74%

CC/C=C\C[C@H]1C(=O)CC[C@@H]1CC(=O)OC [MJ, methyl jasmonate]
expression of AsPAL gene (AsPAL): increased | expression of AsHHT4 gene (AsHHT4): increased | Compared to control (Choyang oats; [3]): 37.41% | avnA (Choyang oats; [4]): 93.22 mg/kg, FW | avnB (Choyang oats; [4]): 163.98 mg/kg, FW | avnC (Choyang oats; [4]): 77.35 mg/kg, FW | total (Choyang oats; [4]): 334.55 mg/kg, FW | Compared to control (Choyang oats; [5]): 45.03% | avnA (Choyang oats; [6]): 98.32 mg/kg, FW | avnB (Choyang oats; [6]): 168.66 mg/kg, FW | avnC (Choyang oats; [6]): 86.12 mg/kg, FW | total (Choyang oats; [6]): 353.1 mg/kg, FW | Compared to control (Choyang oats; [7]): 57.97% | avnA (Choyang oats; [8]): 105.54 mg/kg, FW | avnB (Choyang oats; [8]): 200.86 mg/kg, FW | avnC (Choyang oats; [8]): 78.2 mg/kg, FW | total (Choyang oats; [8]): 384.6 mg/kg, FW | Compared to control (Choyang oats; [9]): 99.80% | avnA (Choyang oats; [10]): 147.03 mg/kg, FW | avnB (Choyang oats; [10]): 222.81 mg/kg, FW | avnC (Choyang oats; [10]): 116.59 mg/kg, FW | total (Choyang oats; [10]): 486.43 mg/kg, FW | Compared to control (Choyang oats; [11]): 137.67% | avnA (Choyang oats; [12]): 179.81 mg/kg, FW | avnB (Choyang oats; [12]): 268.73 mg/kg, FW | avnC (Choyang oats; [12]): 130.08 mg/kg, FW | total (Choyang oats; [12]): 578.62 mg/kg, FW | Compared to control (Choyang oats; [13]): 88.13% | avnA (Choyang oats; [14]): 138.82 mg/kg, FW | avnB (Choyang oats; [14]): 218.47 mg/kg, FW | avnC (Choyang oats; [14]): 100.73 mg/kg, FW | total (Choyang oats; [14]): 458.02 mg/kg, FW | production of avenanthramides compared to control group (Choyang oats; CHI, MJ): significantly increased | avnA (Choyang oats; [1]): 190.07 mg/kg, FW | avnB (Choyang oats; [1]): 260.43 mg/kg, FW | avnC (Choyang oats; [1]): 132.39 mg/kg, FW | total (Choyang oats; [1]): 582.89 mg/kg, FW | Compared to control (Choyang oats; [2]): 150.63% | production of avenanthramides over tested concentrations (Choyang oats): increased at all concentrations | synthesis amount / content of avenanthramides in oats compared to other elicitors (Choyang oats): most increased | synthesis amount / content of avenanthramides in oats compared to other elicitors (Choyang oats; listed as methyl jasmonate): increased most | largest amount of avenanthramides produced (Choyang oats; MJ at a concentration of 75 μM (FIG. 4)): up to 578.6 mg/kg | production of avenanthramides in oats (Choyang oats; MJ at concentrations of 10 μM to 100 μM): significantly increased
